SMILES strings stand for the structures.

Usually IC50 stands for the concentration that inhibits the measured activity by half.

Chain of PD-1/PD-L1 protein/protein interaction (Q9NZQ7 19-238): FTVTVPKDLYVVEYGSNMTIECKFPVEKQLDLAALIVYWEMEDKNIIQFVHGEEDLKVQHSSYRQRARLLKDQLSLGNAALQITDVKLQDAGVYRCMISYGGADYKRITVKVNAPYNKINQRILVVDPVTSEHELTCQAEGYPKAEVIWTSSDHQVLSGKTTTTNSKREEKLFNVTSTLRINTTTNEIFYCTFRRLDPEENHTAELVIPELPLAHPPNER

The test has as its target PD-1/PD-L1 protein/protein interaction (Homo sapiens (Human), UniProt Q9NZQ7). The test is described as follows: PD-1/PD-L1 Homogeneous Time-Resolved Fluorescence (HTRF) Binding Assay. The note with it: recombinant human PD-L1 (19-238) His-tag 10 nM, human PD-1 (25-167) Fc tag 3 nM, 25° C., PBS pH 7.4. The method, then:
The assays were conducted in a standard black 384-well polystyrene plate with a final volume of 20 μL. Inhibitors were first serially diluted in DMSO and then added to the plate wells before the addition of other reaction components. The final concentration of DMSO in the assay was 1%. The assays were carried out at 25° C. in the PBS buffer (pH 7.4) with 0.05% Tween-20 and 0.1% BSA. Recombinant human PD-L1 protein (19-238) with a His-tag at the C-terminus was purchased from AcroBiosystems (PD1-H5229). Recombinant human PD-1 protein (25-167) with Fc tag at the C-terminus was also purchased from AcroBiosystems (PD1-H5257). PD-L1 and PD-1 proteins were diluted in the assay buffer and 10 μL was added to the plate well. Plates were centrifuged and proteins were preincubated with inhibitors for 40 minutes. The incubation was followed by the addition of 10 μL of HTRF detection buffer supplemented with Europium cryptate-labeled anti-human IgG (PerkinElmer-AD0212) specific for Fc and anti-His antibody conjugated to SureLight®-Allophycocyanin (APC, PerkinElmer-AD0059H). After centrifugation, the plate was incubated at 25° C. for 60 min. before reading on a PHERAstar FS plate reader (665 nm/620 nm ratio). Final concentrations in the assay were—3 nM PD1, 10 nM PD-L1, 1 nM europium anti-human IgG and 20 nM anti-His-Allophycocyanin. IC50 determination was performed by fitting the curve of percent control activity versus the log of the inhibitor concentration using the GraphPad Prism 5.0 software.
A general note: Time-resolved FRET reads energy transfer from a long-lived donor to a nearby acceptor.
With `Cc1c(NC(=O)c2ncc(CN3CCCC[C@H]3C(=O)O)s2)cccc1-c1ccccc1` [Example 1, (2S)-1-[(2-{[(2-methylbiphenyl-3-yl)amino]carbonyl}-1,3-thiazol-5-yl)methyl]piperidine-2-carboxylic acid], the IC50 is not above 100 nM.

In the case of `Cc1c(NC(=O)c2ncc(CNCCO)s2)cccc1-c1ccccc1` [Example 2, 5-{[(2-hydroxyethyl)amino]methyl}-N-(2-methylbiphenyl-3-yl)-1,3-thiazole-2-carboxamide], the IC50 is not above 100 nM.

Regarding `Cc1c(NC(=O)c2ncc(CNCCO)o2)cccc1-c1ccccc1` [Example 3, 5-{[(2-hydroxyethyl)amino]methyl}-N-(2-methylbiphenyl-3-yl)-1,3-oxazole-2-carboxamide], the IC50 lay in the range of 100 to 500 nM.

For the molecule `Cc1c(NC(=O)c2ncc(CN3CCCC[C@H]3C(=O)O)n2C)cccc1-c1ccccc1` [Example 4, (2S)-1-[(1-methyl-2-{[(2-methylbiphenyl-3-yl)amino]carbonyl}-1H-imidazol-5-yl)methyl]piperidine-2-carboxylic acid], the IC50 lay in the range of 100 to 500 nM.

In the case of `Cc1c(NC(=O)c2ncc(CNCCO)n2C)cccc1-c1ccccc1` [Example 5, 5-{[(2-hydroxyethyl)amino]methyl}-1-methyl-N-(2-methylbiphenyl-3-yl)-1H-imidazole-2-carboxamide], the half-inhibitory concentration (IC50) was not above 100 nM.

On to `Cc1c(NC(=O)c2cc(CN3CCCC[C@H]3C(=O)O)n(C)n2)cccc1-c1ccccc1` [Example 6, (2S)-1-[(1-methyl-3-{[(2-methylbiphenyl-3-yl)amino]carbonyl}-1H-pyrazol-5-yl)methyl]piperidine-2-carboxylic acid], for which the half-maximal inhibitory concentration (IC50) is not above 100 nM.

With `Cc1c(NC(=O)c2cc(CNCCO)n(C)n2)cccc1-c1ccccc1` [Example 7, 5-{[(2-hydroxyethyl)amino]methyl}-1-methyl-N-(2-methylbiphenyl-3-yl)-1H-pyrazole-3-carboxamide], the IC50 is not above 100 nM.

Turning to `Cc1c(NC(=O)c2nc(Cl)c(CNCCO)s2)cccc1-c1ccccc1` [Example 8, 4-chloro-5-{[(2-hydroxyethyl)amino]methyl}-N-(2-methylbiphenyl-3-yl)-1,3-thiazole-2-carboxamide], the half-inhibitory concentration (IC50) is not above 100 nM.

In the case of `Cc1nc(C(=O)Nc2cccc(-c3ccccc3)c2C)sc1CNCCO` [Example 9, 5-{[(2-hydroxyethyl)amino]methyl}-4-methyl-N-(2-methylbiphenyl-3-yl)-1,3-thiazole-2-carboxamide], the IC50 was not above 100 nM.

For `Cn1nc(C(=O)Nc2cccc(-c3ccc4c(c3)OCCO4)c2C#N)cc1CNCCO` [Example 10, N-[2-cyano-3-(2,3-dihydro-1,4-benzodioxin-6-yl)phenyl]-5-{[1(2-hydroxyethyl)amino]methyl}-1-methyl-1H-pyrazole-3-carboxamide], the half-maximal inhibitory concentration (IC50) was not above 100 nM.

As for `Cn1nc(C(=O)Nc2cccc(-c3ccccc3F)c2C#N)cc1CNCCO` [Example 11, N-(2-cyano-2′-fluorobiphenyl-3-yl)-5-{[(2-hydroxyethyl)amino]methyl}-1-methyl-1H-pyrazole-3-carboxamide], the IC50 was not above 100 nM.

On to `COc1cccc(-c2cccc(NC(=O)c3cc(CNCCO)n(C)n3)c2C#N)c1F` [Example 12, N-(2-cyano-2′-fluoro-3′-methoxybiphenyl-3-yl)-5-{[(2-hydroxyethyl)amino]methyl}-1-methyl-1H-pyrazole-3-carboxamide], for which the half-inhibitory concentration (IC50) is not above 100 nM.

Consider `Cn1nc(C(=O)Nc2cccc(-c3cccc4c3cnn4C)c2C#N)cc1CNCCO` [Example 13, N-[2-cyano-3-(1-methyl-1H-indazol-4-yl)phenyl]-5-{[(2-hydroxyethyl)amino]methyl}-1-methyl-1H-pyrazole-3-carboxamide], for which the 50% inhibitory concentration (IC50) was not above 100 nM.

For the molecule `Cn1c(CNCCO)cnc1C(=O)Nc1cccc(-c2ccc3c(c2)OCCO3)c1C#N` [Example 14, N-[2-cyano-3-(2,3-dihydro-1,4-benzodioxin-6-yl)phenyl]-5-{[1(2-hydroxyethyl)amino]methyl}-1-methyl-1H-imidazole-2-carboxamide], the IC50 was not above 100 nM.

`COc1cccc(-c2cccc(NC(=O)c3ncc(CNCCO)n3C)c2C#N)c1F` [Example 15, N-(2-cyano-2′-fluoro-3′-methoxybiphenyl-3-yl)-5-{[(2-hydroxyethyl)amino]methyl}-1-methyl-1H-imidazole-2-carboxamide]: the half-inhibitory concentration (IC50) was not above 100 nM.

On to `Cn1c(CNCCO)cnc1C(=O)Nc1cccc(-c2cccc3c2cnn3C)c1C#N` [Example 16, N-[2-cyano-3-(1-methyl-1H-indazol-4-yl)phenyl]-5-{[(2-hydroxyethyl)amino]methyl}-1-methyl-1H-imidazole-2-carboxamide], for which the IC50 fell in the range of 100 to 500 nM.

As for `Cc1c(COc2cc(OCc3cncc(C#N)c3)c(CN3CCCC[C@H]3C(=O)O)cc2Cl)cccc1-c1cccc(NC(=O)c2ncc(CNCCO)s2)c1C` [Example 17, (S)-1-(5-chloro-2-((5-cyanopyridin-3-yl)methoxy)-4-((3′-(5-(((2-hydroxyethyl)amino)methyl)thiazole-2-carboxamido)-2,2′-dimethyl-[1,1′-biphenyl]-3-yl)methoxy)benzyl)piperidine-2-carboxylic acid], the 50% inhibitory concentration (IC50) is not above 100 nM.

In the case of `Cc1c(COc2cc(OCc3cncc(C#N)c3)c(CN3CCCC[C@H]3C(=O)O)cc2Cl)cccc1-c1cccc(NC(=O)c2ncc(CN3CC[C@@H](O)C3)s2)c1C` [Example 18, (S)-1-(5-chloro-2-((5-cyanopyridin-3-yl)methoxy)-4-((3′-(5-(((R)-3-hydroxypyrrolidin-1-yl)methyl)thiazole-2-carboxamido)-2,2′-dimethyl-[1,1′-biphenyl]-3-yl)methoxy)benzyl)piperidine-2-carboxylic acid], the half-maximal inhibitory concentration (IC50) was not above 100 nM.

With `Cc1c(NC(=O)c2cc(CN3CC[C@@H](O)C3)n(C)n2)cccc1-c1cccc(NC(=O)c2ncc(CN3CC[C@@H](O)C3)s2)c1C` [Example 19, 5-(((R)-3-hydroxypyrrolidin-1-yl)methyl)-N-(3′-(5-(((R)-3-hydroxypyrrolidin-1-yl)methyl)-1-methyl-1H-pyrazole-3-carboxamido)-2,2′-dimethyl-[1,1′-biphenyl]-3-yl)thiazole-2-carboxamide], the IC50 is not above 100 nM.

For the origin of these results see patent publication US11613536B2, “Heterocyclic compounds as immunomodulators” (Incyte Corporation, priority 2016, dated 2023).
